According to patent US12109204B2, “Methods for treating muscular dystrophies” (The Regents of the University of California, priority 2018, dated 2024):
“Also recorded” adds a separate entry of the source.

Experiments:
Assay type in all cases: cell-based, murine
[1] = tested on: hSSPN-EGFP myotubes (human sarcospan promoter reporter in C2C12); test: hSSPN-EGFP reporter myotube assay (high-content imaging); conditions: for hSSPN-EGFP reporter activity, counterscreen: doses between 3.9 nm to 1 μM, 48 hours (FIG. 10a); for hit call in an earlier assay: no details given
[2] = tested on: hSSPN-Luciferase reporter cells (human sarcospan promoter reporter in C2C12); test: hSSPN-Luciferase reporter assay (Bright-Glo); conditions: doses between 3.9 nm to 1 μM, 48 hours (FIG. 10b)
Procedure: (§1) C2C12 immortalized murine myoblasts cultured in growth media consisting of DMEM (Gibco) with 20% Fetal Bovine Serum (Sigma-Aldrich) at 37° C. with 5% CO2 were transfected with the hSSPN-EGFP or hSSPN-Luciferase linearized plasmids using Lipofectamine 3000 Transfection Reagent (Thermo Fisher Scientific). Transfected cells were selected using 800 μg/ml of G418 (Sigma-Aldrich) for 4 weeks to generate stable cell lines expressing reporter protein under control of the human SSPN promoter.
hSSPN-Luciferase myoblasts were cultured as described above. After 48 hours of treatment, plates were allowed to equilibrate to room temperature before the media was aspirated using an EL406 combination washer dispenser at room temperature. Bright-Glo luciferase assay system reagent (Promega) and differentiation media were added to cells at a 1:2 dilution using a Multidrop 384. After a 3-minute incubation at room temperature, luminescence signal was quantified using an Envision plate reader (PerkinElmer). The relative luminescence units were analyzed to determine fold change of treated over vehicle treated cells.
Cells were treated for 48 hours beginning at day 2 of differentiation with DMSO (vehicle control, ATCC), felodipine (Sigma), nilvadipine (Sigma), alloxazine (Sigma), GW5074 (Sigma), methylthioadenosine (Santa Cruz Biotechnology), or ezutromid (Cayman Chemicals) diluted in cell type specific differentiation media at doses listed in the figures. For gene expression studies, each treatment was performed in duplicate. For protein studies, each treatment was performed with single or double replicates.

[3] = tested on: hSSPN-EGFP myotubes (human sarcospan promoter reporter in C2C12); test: hSSPN-EGFP reporter myotube assay (high-content imaging); conditions: for fluorescence intensity over vehicle, primary screen hit call: primary screen of 3,200 molecules, 5.5 μM, 48 hours, n=1, hit cutoff 1.4-fold; for hSSPN-EGFP RFU, Plate 1 / hSSPN-EGFP RFU, Plate 2: retest of screen hits at 5.5 μM; for hSSPN-EGFP RFU, Plate 1: Plate 1, n=24 per plate; for hSSPN-EGFP RFU, Plate 2: Plate 2, n=24 per plate
Procedure: as §1
hSSPN-EGFP myoblasts were seeded at 500 cells per well in 50 μl of growth media in 384-well black, clear bottom microplates (Greiner) using a Multidrop 384 (Thermo Fisher Scientific) and incubated for 3 days. Upon reaching confluency, the growth media was replaced with 50 μl of differentiation media consisting of DMEM with 2% horse serum (Sigma-Aldrich) using an EL406 combination washer dispenser (Biotek). At day 2 of differentiation, the media on the cells was aspirated, left with a residual volume of 10 μl, and replaced with 30 μl of fresh differentiation media. 0.5 μl of small molecule in DMSO or DMSO alone (for vehicle and positive control wells) was added to each well using a Biomek Fx (Beckman). To ensure proper mixing of the DMSO, 50 μl of additional differentiation media was added to all wells except the positive control treated wells, which instead received 50 μl of media containing insulin transferrin selenium (ITS, Gibco) to reach a final concentration of 1% ITS. The final concentration of drug in each treated well was 5.5 μM in 0.55% DMSO and 0.55% DMSO for vehicle and positive control treated wells. After 48 hours of incubation, the media was replaced with Fluorobrite DMEM (Gibco) and each plate was imaged using ImageXpress Micro Confocal High Content Imaging System (Molecular Devices). The fluorescent intensity of imaged cells was determined using MetaXpress Analysis software (Molecular Devices). Analysis setting were as follows: top hat (size: 12, filter shape: circle), adaptive threshold (source: top hat, minimum width: 10, maximum width: 800, intensity above local background: 500), filter mask (filter type: minimum area filter, minimum value: 500). […]

[4] = tested on: UTRN, utrophin; test: UTRN gene expression by qPCR in C2C12 wild-type myotubes; conditions: C2C12 myotubes, 48h, normalized to GAPDH, n=2 (FIG. 11a); felodipine 10 μM
Procedure: RNA from myotubes treated for 48 hours was extracted from cells using Trizol-based (Thermo Fisher Scientific) phase separation. RNA concentrations were determined using a NanoDrop 1000 (Thermo Fisher Scientific) and 750 ng of RNA in a 20 μl reaction was reverse transcribed using iScript cDNA synthesis (Bio-Rad) with the following cycling conditions: 25° C. for 5 minutes, 42° C. for 30 minutes, 85° C. for 5 minutes. For quantitative PCR, SsoFast EvaGreen Supermix (Bio-Rad), 400 nM of each optimized forward and reverse primer (for primer descriptions see Table 1), and cDNA corresponding to 37.5 ng RNA were used to amplify cDNA measured by Applied Biosystems 7300 (Thermo Fisher Scientific) with the following reaction conditions: 55° C. for 2 minutes, 95° C. for 2 minutes, 40 cycles of 95° C. for 10 seconds and 62° C. for 30 seconds, and dissociation stage. Each sample was run in triplicate. Data was analyzed using the ddCT method and normalized to reference gene, GAPDH or β-actin, with vehicle-treated samples serving as the calibrator (relative expression of vehicle control=1). C2C12 cells (American Type Culture Collection) were grown at 37° C. with 5% CO2 in growth media containing DMEM (Gibco) with 20% FBS (Sigma-Aldrich). Upon reaching confluency, the media was replaced with differentiation media containing DMEM with 2% horse serum (Sigma-Aldrich). […]

[5] = tested on: SSPN, sarcospan; test: SSPN gene expression by qPCR in C2C12 wild-type myotubes; conditions: 48h, normalized to GAPDH, n=2 (FIG. 11b), felodipine 10 μM
Procedure: RNA from myotubes treated for 48 hours was extracted from cells using Trizol-based (Thermo Fisher Scientific) phase separation. RNA concentrations were determined using a NanoDrop 1000 (Thermo Fisher Scientific) and 750 ng of RNA in a 20 μl reaction was reverse transcribed using iScript cDNA synthesis (Bio-Rad) with the following cycling conditions: 25° C. for 5 minutes, 42° C. for 30 minutes, 85° C. for 5 minutes. For quantitative PCR, SsoFast EvaGreen Supermix (Bio-Rad), 400 nM of each optimized forward and reverse primer (for primer descriptions see Table 1), and cDNA corresponding to 37.5 ng RNA were used to amplify cDNA measured by Applied Biosystems 7300 (Thermo Fisher Scientific) with the following reaction conditions: 55° C. for 2 minutes, 95° C. for 2 minutes, 40 cycles of 95° C. for 10 seconds and 62° C. for 30 seconds, and dissociation stage. Each sample was run in triplicate. Data was analyzed using the ddCT method and normalized to reference gene, GAPDH or β-actin, with vehicle-treated samples serving as the calibrator (relative expression of vehicle control=1). C2C12 cells (American Type Culture Collection) were grown at 37° C. with 5% CO2 in growth media containing DMEM (Gibco) with 20% FBS (Sigma-Aldrich). Upon reaching confluency, the media was replaced with differentiation media containing DMEM with 2% horse serum (Sigma-Aldrich). Conditionally immortalized H2K mdx myoblast cells with a nonsense mutation in exon 23 of dystrophin were a gift from Terrance Partridge, Ph.D. (Children's National Medical Center, Washington, D.C.). Cells were allowed to proliferate on 0.01% gelatin (Sigma-Aldrich) coated plates at 33° C. with 5% CO2 with growth media containing DMEM, 20% HI-FBS (Invitrogen), 2% L-glutamine (Sigma-Aldrich), 2% chicken embryo extract (Accurate Chemical), 1% penicillin-streptomycin (Sigma-Aldrich), and 20U/ml of fresh interferon gamma (Gibco). For differentiation, H2K mdx myoblasts were seeded on plates coated with 0.1 mg/ml matrigel (Corning) diluted in DMEM and grown in proliferation conditions. […]

Row | Structure (SMILES) | hSSPN-EGFP reporter activity, counterscreen [1] | hit call in an earlier assay [1] | hSSPN-Luciferase reporter activity, counterscreen [2] | fluorescence intensity over vehicle, primary screen hit call [3] | hSSPN-EGFP RFU, Plate 1 [3] [RFU] | hSSPN-EGFP RFU, Plate 2 [3] [RFU] | UTRN gene expression relative to vehicle [4] | SSPN gene expression relative to vehicle [5]
1 | CSC[C@H]1O[C@@H](n2cnc3c(N)ncnc32)[C@H](O)[C@@H]1O [methylthioadenosine, (2R,3R,4S,5S)-2-(6-aminopurin-9-yl)-5-(methylsulfanylmethyl)oxolane-3,4-diol] | increased activity | among the hits | increased activity | – | – | – | – | –
2 | COC(=O)C1=C(C)NC(C)=C(C(=O)OC(C)C)C1c1cccc2nonc12 (centres unmarked) [Isradipine, 3-O-methyl 5-O-propan-2-yl 4-(2,1,3-benzoxadiazol-4-yl)-2,6-dimethyl-1,4-dihydropyridine-3,5-dicarboxylate] | – | – | – | hits | 1.5 | 1.4 | – | –
3 | COC(=O)N=N/C=C1\C=[N+]([O-])c2ccccc2N1O [Carbodox, methyl N-[(E)-(1-hydroxy-4-oxidoquinoxalin-4-ium-2-ylidene)methyl]iminocarbamate] | – | – | – | – | 1.1 | 1.1 | – | –
4 | CC(=O)OC1CN2CCC1CC2 (centres unmarked) [Aceclidine, 1-Azabicyclo[2.2.2]oct-3-yl acetate] | – | – | – | – | 1.1 | 1.1 | – | –
5 | CCS(=O)(=O)c1ccc2oc(-c3ccc4ccccc4c3)nc2c1 [ezutromid] | – | – | – | – | – | – | did not significantly increase UTRN levels; also recorded: did not increase utrophin gene expression | did not significantly increase SSPN gene expression; also recorded: did not significantly increase sarcospan levels
6 | CCOC(=O)C1=C(C)NC(C)=C(C(=O)OCC)C1c1ccccc1/C=C/C(=O)OC(C)(C)C [Lacidipine, diethyl 2,6-dimethyl-4-[2-[(E)-3-[(2-methylpropan-2-yl)oxy]-3-oxoprop-1-enyl]phenyl]-1,4-dihydropyridine-3,5-dicarboxylate] | – | – | – | hits | 1.3 | 1.2 | – | –
7 | C[C@]12CC[C@H]3[C@@H](CCC4=CC(=O)CC[C@@H]43)[C@@H]1CC[C@@H]2O [Nandrolone, (8R,9S,10R,13 S,14S,17S)-17-hydroxy-13-methyl-2,6,7,8,9,10,11,12,14,15,16,17-dodecahydro-1H-cyclopenta[a]phenanthren-3-one] | – | – | – | hits | 1.2 | 1.1 | – | –
8 | CC(C)NCC(O)c1ccc(O)c(O)c1 (centres unmarked) [Isoproterenol, 4-[1-hydroxy-2-(propan-2-ylamino)ethyl]benzene-1,2-diol] | – | – | – | hits | 1.1 | 1.1 | – | –
9 | COC(=O)C1=C(C)NC(C)=C(C(=O)OC)C1c1ccccc1[N+](=O)[O-] [Nifedipine, dimethyl 2,6-dimethyl-4-(2-nitrophenyl)-1,4-dihydropyridine-3,5-dicarboxylate] | – | – | – | hits | 1.3 | 1.0 | – | –
10 | CC[n+]1c(C=CC=C2N(C)c3ccccc3C2(C)C)sc2ccccc21.[I-] [AC-93253, 2-[3-(1,3-Dihydro-1,3,3-trimethyl-2H-indol-2-ylidene)-1-propenyl]-3-ethyl-benzothiazolium iodide] | – | among the hits | – | – | – | – | – | –
11 | O=c1[nH]c(=O)c2nc3ccccc3nc2[nH]1 [Alloxazine, 1H-benzo[g]pteridine-2,4-dione] | increased activity | – | increased activity | hits | 1.0 | 1.1 | – | –
12 | CCCCN1CCCC1CNC(=O)c1cc(C#N)c2ccccc2c1OC (centres unmarked) [Nafadotride, N-[(1-butylpyrrolidin-2-yl)methyl]-4-cyano-1-methoxynaphthalene-2-carboxamide] | – | – | – | – | 1.1 | 1.0 | – | –
13 | COC(=O)C1=C(C#N)NC(C)=C(C(=O)OC(C)C)C1c1cccc([N+](=O)[O-])c1 (centres unmarked) [Nilvadipine, 3-O-methyl 5-O-propan-2-yl 2-cyano-6-methyl-4-(3-nitrophenyl)-1,4-dihydropyridine-3,5-dicarboxylate] | increased activity | – | increased activity | hits | 1.6 | 1.5 | – | –
14 | Nc1nc(=O)c2ncn(COCCO)c2[nH]1 [Acyclovir, 2-amino-9-(2-hydroxyethoxymethyl)-3H-purin-6-one] | – | – | – | – | 0.9 | 1.0 | – | –
15 | O=C1Nc2ccc(I)cc2/C1=C/c1cc(Br)c(O)c(Br)c1 [GW5074, (3Z)-3-[(3,5-dibromo-4-hydroxyphenyl)methylidene]-5-iodo-1H-indol-2-one] | increased activity | – | increased activity | hits | 1.2 | 1.2 | – | –
